# Legend:
# Test in all cases: Bliss excess, mean over the matrix (fraction); higher = more synergy
# [1] = test system: HCC1806 (Breast Carcinoma)
# Outline: (§1)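 After 24 hours at 37°C and 5% CO2 in 1536-well plates, cells in DMEM/F12 or RPMI plus 10% FBS received two-drug dose matrices for 72 hours. Viability came from CellTiter-Glo 2.0 luminescence and was scaled as inhibition, anchored at 0 by vehicle wells and at 1 by blank wells. Combination Emax is taken as the second-highest inhibition in the matrix, and Bliss excess as the observed combination effect less EA + EB − EA·EB, with EA and EB the single-agent effects.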
# [2] = test system: TCCSUP (Bladder Carcinoma)
# Outline: as §1
# [3] = test system: Calu-3 (Lung Adenocarcinoma)
# Outline: as §1
# [4] = test system: NCI-H82 (Small Cell Lung Carcinoma)
# Outline: as §1
# [5] = test system: RO82-W-1 (Thyroid Gland Carcinoma)
# Outline: as §1
# [6] = test system: HO-1-N-1 (Oral Cavity Carcinoma)
# Outline: as §1
# ES4 (Ewing's Sarcoma) = test system: ES4 (Ewing's Sarcoma)
# Outline: as §1
# 42-MG-BA (Glioblastoma) = test system: 42-MG-BA (Glioblastoma)
# Outline: as §1
# [7] = test system: LNCaP-Clone-FGC (Prostate Carcinoma)
# Outline: as §1
# [8] = test system: KYSE-520 (Esophageal Squamous Cell Carcinoma)
# Outline: as §1
# [9] = test system: DoTc2-4510 (Cervical Carcinoma)
# Outline: as §1
# [10] = test system: LS-180 (Colorectal Carcinoma)
# Outline: as §1
# [11] = test system: Hs-578-T (Breast Carcinoma)
# Outline: as §1
# [12] = test system: Ramos-2G6-4C10 (Burkitt's Lymphoma)
# Outline: as §1
# [13] = test system: DEL (T-Cell Non-Hodgkin's Lymphoma)
# Outline: as §1
# [14] = test system: UM-UC-3 (Bladder Carcinoma)
# Outline: as §1
# [15] = test system: CAL-148 (Breast Carcinoma)
# Outline: as §1
# [16] = test system: KURAMOCHI (Ovarian Carcinoma)
# Outline: as §1
# [17] = test system: ME-1 (Acute Myeloid Leukemia)
# Outline: as §1
# [18] = test system: B-CPAP (Thyroid Gland Carcinoma)
# Outline: as §1
Compound,Bliss excess [1],Bliss excess [2],Bliss excess [3],Bliss excess [4],Bliss excess [5],Bliss excess [6],Bliss excess (ES4 (Ewing's Sarcoma)),Bliss excess (42-MG-BA (Glioblastoma)),Bliss excess [7],Bliss excess [8],Bliss excess [9],Bliss excess [10],Bliss excess [11],Bliss excess [12],Bliss excess [13],Bliss excess [14],Bliss excess [15],Bliss excess [16],Bliss excess [17],Bliss excess [18]
"COc1cccc(OCCCN)c1-c1cc(Nc2cnc(C#N)cn2)n[nH]1 [Prexasertib] + O=C(c1cc(Cc2n[nH]c(=O)c3ccccc23)ccc1F)N1CCN(C(=O)C2CC2)CC1 [Olaparib] (first compound max 1 µM, 7x7, partner max 10 µM)",-0.0284,-0.006,-0.0558,-0.0735,-0.0731,0.0205,-0.0699,-0.0399,-0.049,-0.111,-0.0041,-0.0348,-0.0324,-0.0875,0.0035,-0.0015,-0.0507,-0.0891,-0.0619,-0.007
"COc1cc2c(cc1OCCCCCOc1cc3c(cc1OC)C(=O)N1C=C(C)C[C@H]1C=N3)N=C[C@@H]1CC(C)=CN1C2=O [SG3199] + O=C(c1cc(Cc2n[nH]c(=O)c3ccccc23)ccc1F)N1CCN(C(=O)C2CC2)CC1 [Olaparib] (first compound max 0.001 µM, 7x7, partner max 10 µM)",-0.0132,-0.0281,-0.0266,-0.0075,-0.0704,-0.0138,-0.0097,0.0075,0.0189,-0.0137,-0.0123,-0.0525,-0.0422,-0.0122,0.0108,-0.0308,-0.0294,-0.0693,-0.013,0.0434
"CCc1c2c(nc3ccc(O)cc13)-c1cc3c(c(=O)n1C2)COC(=O)[C@]3(O)CC [SN-38] + CN(C)CCCOc1ccc(-c2ccc3ncc4c(c3c2)n(C2CCOCC2)c(=O)n4C)cn1 [AZD0156] (first compound max 0.3 µM, 7x7, partner max 1 µM)",-0.0222,0.0859,0.0092,0.0287,-0.088,0.0488,0.0523,0.0561,-0.0804,-0.0071,0.0091,0.0439,0.169,0.0361,0.117,0.06,-0.0174,0.0421,-0.008,0.0105
"C[C@@H](c1ccc2nccn2c1)n1nnc2ncc(-c3cnn(C)c3)nc21 [Savolitinib] + CC1(C)CCC(CN2CCN(c3ccc(C(=O)NS(=O)(=O)c4ccc(NCC5CCOCC5)c([N+](=O)[O-])c4)c(Oc4cnc5[nH]ccc5c4)c3)CC2)=C(c2ccc(Cl)cc2)C1 [Venetoclax] (first compound max 1 µM, 7x7, partner max 1 µM)",-0.0367,-0.0551,-0.0347,-0.0467,-0.0371,-0.0105,-0.0443,-0.04,-0.0593,-0.0774,-0.0601,-0.0201,-0.0363,-0.0183,-0.0385,-0.0574,-0.0359,-0.0274,-0.0192,-0.0453
"C[C@@H](c1ccc2nccn2c1)n1nnc2ncc(-c3cnn(C)c3)nc21 [Savolitinib] + Cc1c2c(nn1C)CSCc1cc(n(C)n1)CSc1cc(c3ccccc3c1)OCCCc1c(C(=O)O)n(C)c3c-2c(Cl)ccc13 [AZD5991] (first compound max 1 µM, 7x7, partner max 1 µM)",0.0014,-0.0262,-0.021,-0.0763,-0.0386,-0.0373,-0.0724,-0.0633,-0.0148,-0.0615,-0.0204,-0.015,-0.0137,0.0002,-0.0441,-0.0161,0.0087,-0.0332,-0.051,-0.0221
"Cn1cnc2c(F)c(Nc3ccc(Br)cc3Cl)c(C(=O)NOCCO)cc21 [Selumetinib] + C=CCn1c(=O)c2cnc(Nc3ccc(N4CCN(C)CC4)cc3)nc2n1-c1cccc(C(C)(C)O)n1 [AZD1775] (first compound max 10 µM, partner max 1 µM)",0.0042,-0.0432,-0.0405,-0.106,-0.0769,-0.0206,-0.0679,-0.0509,-0.15,0.0054,-0.0164,-0.0585,-0.0423,-0.0956,-0.043,-0.0187,-0.0543,0.0427,-0.0255,-0.0704
"Cn1cnc2c(F)c(Nc3ccc(Br)cc3Cl)c(C(=O)NOCCO)cc21 [Selumetinib] + CC(C)n1c(=O)n(C)c2cnc3cc(F)c(-c4ccc(OCCCN5CCCCC5)nc4)cc3c21 [AZD1390] (first compound max 10 µM, 7x7, partner max 0.3 µM)",-0.0029,-0.0588,-0.023,-0.0349,-0.034,0.0053,-0.0515,-0.0321,-0.0381,-0.0115,-0.0401,-0.0519,-0.0426,-0.0211,0.0087,-0.0205,-0.0421,-0.055,0.0338,-0.0222

# — the supplement of paper PMC11061612
